# Measurements reported in publication PMC3356383, “Efficacious Intermittent Dosing of a Novel JAK2 Inhibitor in Mouse Models of Polycythemia Vera” (PLoS ONE, 2012).
# Experiments:
# [1] = tested on: BaF3 (JAK2 V617F) cells; test: Cell proliferation, ViaLight assay; type: cell-based; details: Mus musculus, 48 hour
# Experimental: (§1) Cell proliferation was measured by ViaLight (Lonza Group Ltd) assay as follows. Cells (1000–2000) were seeded into 384-well plates and incubated 16 hours @ 37°C, 5% CO2. […] Cells were lysed and ATP detected as per the manufacturer protocol.
# [2] = tested on: CTLL-2 cells; test: Cell proliferation, ViaLight assay; type: cell-based
# Experimental: as §1
# [3] = tested on: BaF3 (JAK2 WT) cells; test: Cell proliferation, ViaLight assay; type: cell-based; details: Mus musculus, 48 hour, EPO-stimulated
# Experimental: as §1
# [4] = tested on: H2122 cells; test: Cell proliferation, ViaLight assay; type: cell-based; details: Homo sapiens, NCI-H2122, 48 hour, epithelial lung cancer cell line
# Experimental: as §1
# [5] = tested on: BaF3 (JAK2 V617F) cells; test: Cell apoptosis, ApoDirect assay; type: cell-based; details: Mus musculus, 24 hour, ApoDirect measurement of fragmented DNA, read-out: Cell apoptosis, BaF3 (JAK2 V617F) (values shown are EC50)
# Experimental: (§2) Cell survival was measured by ApoDirect (BD Biosciences) assay as follows. BaF3 cells were grown at 37°C, 5% CO2, and aliquots (2 × 10^6) were treated with inhibitor (various concentration dissolved in DMSO) for 24 hours and then fixed and stained as per manufacturer protocol.
# [6] = tested on: BaF3 (JAK2 WT) cells; test: Cell apoptosis, ApoDirect assay; type: cell-based; details: Mus musculus, 24 hour, EPO-stimulated, ApoDirect measurement of fragmented DNA, read-out: Cell apoptosis, BaF3 (JAK2 WT) (values shown are EC50)
# Experimental: as §2
# [7] = biological target: T1, TYK2 (JH1) (Homo sapiens, UniProt P29597); test: TYK2 enzyme assay, HTRF detection; type: biochemical
# T1 construct: TYK2 (JH1)
# T1 sequence (P29597 897-1176 limits assumed, species assumed): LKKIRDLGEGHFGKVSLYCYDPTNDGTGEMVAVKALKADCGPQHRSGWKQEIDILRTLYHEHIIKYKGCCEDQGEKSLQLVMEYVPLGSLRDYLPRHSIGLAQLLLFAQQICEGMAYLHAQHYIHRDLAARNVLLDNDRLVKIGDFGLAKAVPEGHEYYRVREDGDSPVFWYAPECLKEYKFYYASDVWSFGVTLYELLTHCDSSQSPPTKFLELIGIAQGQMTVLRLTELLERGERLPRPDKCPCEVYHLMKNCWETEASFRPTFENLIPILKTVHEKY
# Experimental: JAK1, JAK2, JAK3, and TYK2 kinase activity assays were performed as described previously using HTRF detection technology and the peptide substrate amino hexanoyl biotin-EQEDEPEGDYFEWLE-NH2. Each reaction was incubated between 60 and 80 min at room temperature. Final conditions were as follows: JAK1, 400 pM enzyme, Hepes pH 7.5, 10 mM MgCl2, 0.01% Brij-35, 1 mM EGTA, 0.1 mg/ml BSA), 2 mM DTT, 2 µM peptide substrate, 25 µM MgATP, 5% DMSO and the desired concentration of subject compound; JAK2, 25 pM enzyme (JH1, JH1–JH2^wt, JH1–JH2^V617F domains), 2 µM peptide substrate, 15 µM MgATP, 5 mM MgCl2, 100 mM NaCl, 2 mM DTT, 0.1 mg/ml BSA, 50 mM Tris (pH 7.4), 5% DMSO and the desired concentration of subject compound; JAK3, 250 pM enzyme, 50 mM Hepes pH 7.5, 10 mM MgCl2, 0.01% Brij-35, 1 mM EGTA, 0.1 mg/ml BSA), 2 mM DTT, 2.0 µM peptide substrate, 25 µM MgATP, 5% DMSO, and the desired concentration of subject compound; TYK2, 125 pM enzyme, 50 mM Hepes pH 7.5, 10 mM MgCl2, 0.01% Brij-35, 1 mM EGTA, 0.1 mg/ml BSA, 2 mM DTT, 2.0 µM peptide substrate, 15 µM MgATP, 5% DMSO and the desired concentration of subject compound.
# [8] = tested on: lung epithelial cancer cell lines, including H2122 cells; test: Cell proliferation of several lung epithelial cancer cell lines; type: cell-based; details: on average
# Experimental: as §1
# [9] = tested on: JAK2V617F-Luciferase expressing cells; test: Bone marrow transplant mice expressing JAK2V617F-Luciferase (PV model); type: in vivo
# Experimental: Production of retrovirus containing cDNA of JAK2 V617F fused to luciferase 2 was performed as described previously as was transplantation of bone marrow cells infected with virus into irradiated mice.
# Imaging of mice expressing JAK2 V617F-Luciferase was conducted as described previously.
# Measurement of the level of JAK2 V617F allele in the tissues of transplanted mice was done as described previously.
# Cells were stained in PBS, 0.5% BSA with antibodies for 15 min on ice. Stained cells were acquired on a 4-laser LSR-II (BD Biosciences) and data analyzed using FlowJo software (Treestar). Dead cells were labeled with the blue fluorescent LIVE/DEAD reactive dye (Invitrogen) and excluded from the analysis.
compound,measurement,setting,value
NC(=O)c1cnc(N[C@H](C2CC2)C(F)(F)F)c2c1[nH]c1cc(-c3cnc(N)nc3)ccc12 [MRLB-11055],IC50,[1],29 nM
same,Fold more potent against IL-2-dependent CTLL cells than JAK2V617F BaF3 cells in proliferation assays,[2],2 fold
same,IC50,"[2]; Mus musculus, CTLL-2, 48 hour, Vialight",13 nM
same,IC50,[3],14 nM
same,IC50,[4],1900 nM
same,EC50,[5],135 nM
same,EC50,[6],260 nM
same,IC50,"[7]; HTRF, mean, n = 3, read-out: IC50, cell-free TYK2 (JH1)",0.18 nM
same,Selectivity for JAK2 over Tyk2,[7]; cell-free assays,2 fold
same,"Proliferation IC50 of lung epithelial cancer cell lines, fold higher than for JAK2-dependent cell lines",[8],50–70 fold
same,Reduction in spleen BLI over first 3 days of treatment,"[9]; 54 mpk oral once daily for 3 days, cycle 1",~20 fold
same,"Spleen BLI, splenic CD71+TER119+ cells and V617F allele burden in peripheral blood","[9]; 54 mpk oral once daily, Day 3, no further benefit out to Day 7",Significant reductions in all three endpoints
same,Spleen weight at end of second holiday period,"[9]; 54 mpk, 2 cycles",normalization in spleen weight
same,Hematocrit after 2 cycles,"[9]; 54 mpk, 2 cycles of 3 days on, 4 days off, decreased from 53%, vehicle 53% to 56%",42%
same,CD71+TER119+ cells in spleen relative to vehicle controls,"[9]; 54 mpk, end of second holiday period",significant reduction
same,Level of pSTAT5 in spleens of JAK2V617F-Luciferase mice,[9]; 1 hour post-dose,significantly inhibited
same,Increase in spleen BLI over the 4 day holiday,"[9]; 4 days after 3 days of 54 mpk, cycle 1",~4 fold
same,"Spleen BLI after holiday, fold less than pre-treatment levels","[9]; end of cycle 1 (3 days on, 4 days off), 54 mpk",about 5 fold
